Results on 19 molecules are retold here after paper PMC3858179 (Journal of medicinal chemistry, 2008).

For one test, the target named is E. coli TS (Escherichia coli, UniProt P0A884). The test can be described thus: Inhibition of isolated E. coli TS. The class given is biochemical. Particulars: for % inhibition TS E. coli (number in parenthesis): at the concentration given.
The target in test [1] is T1, T. gondii DHFR (Toxoplasma gondii, UniProt Q07422).
T1 sequence (Q07422 1-610): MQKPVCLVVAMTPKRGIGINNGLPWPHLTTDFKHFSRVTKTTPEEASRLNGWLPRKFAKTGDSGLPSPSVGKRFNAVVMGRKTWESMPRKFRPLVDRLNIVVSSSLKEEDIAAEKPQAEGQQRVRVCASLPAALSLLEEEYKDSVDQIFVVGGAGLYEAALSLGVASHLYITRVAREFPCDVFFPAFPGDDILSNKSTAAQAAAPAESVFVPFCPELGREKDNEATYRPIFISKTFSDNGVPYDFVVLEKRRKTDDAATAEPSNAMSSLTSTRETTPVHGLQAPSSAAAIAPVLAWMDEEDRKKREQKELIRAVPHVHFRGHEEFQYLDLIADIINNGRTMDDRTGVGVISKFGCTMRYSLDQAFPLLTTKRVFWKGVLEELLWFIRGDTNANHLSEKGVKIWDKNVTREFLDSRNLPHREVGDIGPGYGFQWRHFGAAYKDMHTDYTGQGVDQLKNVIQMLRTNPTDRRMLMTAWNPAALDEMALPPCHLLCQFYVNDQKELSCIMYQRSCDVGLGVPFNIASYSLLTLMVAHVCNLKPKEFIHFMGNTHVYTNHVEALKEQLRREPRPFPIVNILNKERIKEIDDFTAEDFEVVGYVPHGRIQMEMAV
It is filed as biochemical. Particulars: 20 compounds jointly assayed, by both protocols (Table 1 and Table 2 conditions).

The target of another test is human TS (Homo sapiens, UniProt P04818). The test is described as follows: Inhibition of isolated human TS. It is filed as biochemical.
human TS, sequence (P04818 whole entry): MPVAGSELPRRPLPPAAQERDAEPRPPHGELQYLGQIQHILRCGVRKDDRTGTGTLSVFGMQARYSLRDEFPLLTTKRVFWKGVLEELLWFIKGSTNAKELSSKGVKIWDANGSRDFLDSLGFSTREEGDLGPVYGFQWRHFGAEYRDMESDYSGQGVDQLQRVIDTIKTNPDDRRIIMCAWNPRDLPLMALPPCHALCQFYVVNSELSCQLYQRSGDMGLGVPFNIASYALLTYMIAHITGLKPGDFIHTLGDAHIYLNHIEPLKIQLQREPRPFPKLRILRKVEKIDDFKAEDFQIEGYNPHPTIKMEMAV
Another test concerns the target T. gondii TS (Toxoplasma gondii, UniProt Q07422). It is filed as biochemical.
A further test concerns the target T2, human DHFR (Homo sapiens, UniProt P00374).
T2 sequence (P00374 1-187): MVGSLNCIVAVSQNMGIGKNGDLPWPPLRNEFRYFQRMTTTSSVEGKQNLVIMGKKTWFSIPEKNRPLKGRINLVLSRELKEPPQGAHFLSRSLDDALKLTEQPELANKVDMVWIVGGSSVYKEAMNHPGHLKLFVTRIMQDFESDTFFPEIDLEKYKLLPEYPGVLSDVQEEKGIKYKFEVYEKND
The test can be described thus: Inhibition of isolated human DHFR. The class given is biochemical.

The target in another test is E. coli DHFR (Escherichia coli, UniProt P0ABQ4). The test is described as follows: Inhibition of isolated E. coli DHFR. The class given is biochemical.
E. coli DHFR, sequence (P0ABQ4 whole entry): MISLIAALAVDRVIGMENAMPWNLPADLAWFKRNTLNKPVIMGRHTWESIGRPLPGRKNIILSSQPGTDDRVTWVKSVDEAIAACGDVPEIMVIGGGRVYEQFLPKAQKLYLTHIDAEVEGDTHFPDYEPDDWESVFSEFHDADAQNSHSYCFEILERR
The target in test [2] is T1, T. gondii DHFR. The class given is biochemical.
The test system of another test is 60 tumor cell lines. The test can be described thus: NCI in vitro preclinical antitumor screening, 60 tumor cell lines. The class given is cell-based.
The next test concerns SW-620. The test is described as follows: NCI tumor cell growth inhibition, SW-620. It is filed as cell-based. Particulars: Homo sapiens, SW-620, read-out: GI50 SW-620.
A further test deals with HCT 15. The test is described as follows: NCI tumor cell growth inhibition, HCT 15. The class given is cell-based. Particulars: Homo sapiens, HCT-15, read-out: GI50 HCT 15.
Test [3] relates to human CCRF-CEM leukemia cells. Particulars: read-out: EC50 growth of human CCRF-CEM leukemia cells in culture; cited from earlier work.

pEC50, pIC50: −log10 of the molar value. Where two headings read alike, the source gives them in different places. Where only a bound is given, the exact number is not on record here.

E. coli TS, sequence (P0A884 whole entry): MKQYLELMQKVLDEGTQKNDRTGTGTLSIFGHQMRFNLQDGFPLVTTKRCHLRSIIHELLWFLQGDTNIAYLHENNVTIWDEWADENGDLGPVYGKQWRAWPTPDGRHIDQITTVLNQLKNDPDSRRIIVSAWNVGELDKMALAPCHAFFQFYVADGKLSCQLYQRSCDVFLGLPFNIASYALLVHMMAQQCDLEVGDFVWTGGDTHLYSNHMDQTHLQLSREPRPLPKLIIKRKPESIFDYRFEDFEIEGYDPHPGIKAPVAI

`CCCc1c(Sc2ccc(OC)cc2)[nH]c2nc(N)nc(N)c12` [Compound 14, 2,4-Diamino-5-propyl-6-(4′-methoxyphenylsulfanyl)-7H-pyr-rolo[2,3-d]pyrimidine]: at E. coli TS, the pIC50 – broadly, the negative decadic logarithm of the IC50, by convention in mol/L – is less than 4.89 and the “% inhibition TS E. coli (number in parenthesis)” value (“% inhibition TS E. coli” for short) stood at 0%.

Regarding `COc1ccc(Sc2[nH]c3nc(N)nc(N)c3c2C(C)C)cc1` [Compound 22, 2,4-Diamino-5-isopropyl-6-(4′-methoxyphenylsulfanyl)-7H-pyrrolo[2,3-d]pyrimidine], at E. coli TS, the pIC50 is less than 5.60 and the “% inhibition TS E. coli” value came out at 0%.

As for `CCCc1c(Sc2ccccc2)[nH]c2nc(N)nc(N)c12` [Compound 13, 2,4-Diamino-5-propyl-6-(phenylsulfanyl)-7H-pyrrolo[2,3-d]py-rimidine], on E. coli TS, the pIC50 was less than 4.85 and the “% inhibition TS E. coli” value stood at 0%.

Take `CC(C)c1c(Sc2ccc(Cl)c(Cl)c2)[nH]c2nc(N)nc(N)c12` [Compound 27, 2,4-Diamino-5-isopropyl-6-(3′,4′-dichlorophenylsulfanyl)-7H-pyrrolo[2,3-d]pyrimidine]: on E. coli TS, the pIC50 was less than 5.64 and the “% inhibition TS E. coli” value came to 0%. For the same molecule, the “potency rank against T. gondii DHFR, in words” value (from here on “potency rank”) on T. gondii DHFR [1] was “among the six least potent compounds”.

As for `CC(C)c1c(Sc2ccc3ccccc3c2)[nH]c2nc(N)nc(N)c12` [Compound 26, 2,4-Diamino-5-isopropyl-6-(2′-napthylsulfanyl)-7H-pyrrolo[2,3-d]pyrimidine], at E. coli TS, the pIC50 was less than 5.62 and the “% inhibition TS E. coli” value worked out at 0%.

With `CCCc1c(Sc2cc(OC)ccc2OC)[nH]c2nc(N)nc(N)c12` [Compound 15, 2,4-Diamino-5-propyl-6-(2′,5′-dimethoxyphenylsulfanyl)-7H-pyrrolo[2,3-d]pyrimidine], at E. coli TS, the negative-log IC50 (pIC50) was less than 4.92 and the “% inhibition TS E. coli” value is reported as 0%.

Turning to `CCCc1c(Sc2c(C)cccc2C)[nH]c2nc(N)nc(N)c12` [Compound 12, 2,4-Diamino-5-propyl-6-(2′,6′-dimethylphenylsulfanyl)-7H-pyrrolo[2,3-d] pyrimidine], on E. coli TS, the pIC50 was less than 4.62 and the “% inhibition TS E. coli” value is given as 0%.

On to `CCCc1c(Sc2ccc(C(=O)N[C@@H](CCC(=O)O)C(=O)O)cc2)[nH]c2nc(N)nc(N)c12` [Compound 3, N-[4-[(2,4-Diamino-5-propyl-7H-pyrrolo[2,3-d]pyrimidin-6-yl)sulfanyl]benzoyl]-L-glutamic Acid], for which, at human TS, the “inhibition of hTS, in words” value was “poor inhibitor”. At E. coli TS, the “inhibition of E. coli TS, in words” value is listed as “poor inhibitor”. For the same molecule, at T. gondii TS, the “inhibition of T. gondii TS, in words” value was “moderate inhibition”. For the same molecule, on human DHFR, the “inhibition of hDHFR, in words” value is “good inhibitor”. The “inhibition of E. coli DHFR, in words” value on E. coli DHFR is reported as “good inhibitor”. Also, the “inhibition of T. gondii DHFR, in words” value on T. gondii DHFR [2] is given as “good inhibitor”. Besides, the “potency rank” value at T. gondii DHFR [1] was “three most potent compounds”. Besides, the GI50 (as a rule, the concentration at which growth is held to half of that of the control) is less than 1 µM with 60 tumor cell lines, not above 0.1 µM in the test with 60 tumor cell lines (read-out: GI50 tumor cells in culture), 1.21 µM with SW-620 and more than 100 µM with HCT 15.

As for `COc1ccc(OC)c(Sc2[nH]c3nc(N)nc(N)c3c2C(C)C)c1` [Compound 23, 2,4-Diamino-5-isopropyl-6-(2′,5′-dimethoxyphenylsulfanyl)-7H-pyrrolo[2,3-d]pyrimidine], at E. coli TS, the pIC50 was less than 5.64 and the “% inhibition TS E. coli” value worked out at 0%. Besides, the “potency rank” value at T. gondii DHFR [1] is given as “among the six least potent compounds”.

Take `CCCc1c(Sc2cccc3ccccc23)[nH]c2nc(N)nc(N)c12` [Compound 17, 2,4-Diamino-5-propyl-6-(1′-napthylsulfanyl)-7H-pyrrolo[2,3-d]pyrimidine]: at E. coli TS, the pIC50 is less than 4.92 and the “% inhibition TS E. coli” value is listed as 0%.

Regarding `CC(C)c1c(Sc2cccc3ccccc23)[nH]c2nc(N)nc(N)c12` [Compound 25, 2,4-Diamino-5-isopropyl-6-(1′-napthylsulfanyl)-7H-pyrrolo[2,3-d]pyrimidine], on E. coli TS, the pIC50 is less than 4.92 and the “% inhibition TS E. coli” value was 0%.

`CCCc1c(Sc2ccc(OC)c(OC)c2)[nH]c2nc(N)nc(N)c12` [Compound 16, 2,4-Diamino-5-propyl-6-(3′,4′-dimethoxyphenylsulfanyl)-7H-pyrrolo[2,3-d]pyrimidine]: on E. coli TS, the pIC50 was less than 4.96 and the “% inhibition TS E. coli” value is 0%.

With `CCCc1c(Sc2ccc3ccccc3c2)[nH]c2nc(N)nc(N)c12` [Compound 18, 2,4-Diamino-5-propyl-6-(2′-napthylsulfanyl)-7H-pyrrolo[2,3-d]pyrimidine], at E. coli TS, the pIC50 is less than 4.92 and the “% inhibition TS E. coli” value is recorded as 0%.

As for `CCCc1c(Sc2c(Cl)cccc2Cl)[nH]c2nc(N)nc(N)c12` [Compound 11, 2,4-Diamino-5-propyl-6-(2′,6′-dichlorophenylsulfanyl)-7H-pyrrolo[2,3-d]pyrimidine], at E. coli TS, the pIC50 is less than 4.66 and the “% inhibition TS E. coli” value came out at 0%.

As to `CN(Cc1cnc2nc(N)nc(N)c2n1)c1ccc(C(=O)N[C@@H](CCC(=O)O)C(=O)O)cc1` [MTX, methotrexate, reference compound], the “potency rank” value at T. gondii DHFR [1] was “three most potent compounds”. The pEC50 (commonly the negative decadic logarithm of the EC50, by convention in mol/L) in [3] is 7.90.

Take `COc1ccc(Sc2[nH]c3nc(N)nc(N)c3c2C(C)C)cc1OC` [Compound 24, 2,4-Diamino-5-isopropyl-6-(3′,4′-dimethoxyphenylsulfanyl)-7H-pyrrolo[2,3-d]pyrimidine]: on E. coli TS, the pIC50 is less than 5.64 and the “% inhibition TS E. coli” value turned out to be 0%. At T. gondii DHFR [1], the “potency rank” value is given as “among the six least potent compounds”.

Consider `CC(C)c1c(Sc2ccccc2)[nH]c2nc(N)nc(N)c12` [Compound 21, 2,4-Diamino-5-isopropyl-6-(phenylsulfanyl)-7H-pyrrolo[2,3-d]pyrimidine], for which, on E. coli TS, the pIC50 is less than 5.57 and the “% inhibition TS E. coli” value turned out to be 0%.

`Cc1cccc(C)c1Sc1[nH]c2nc(N)nc(N)c2c1C(C)C` [Compound 20, 2,4-Diamino-5-isopropyl-6-(2′,6′-dimethylphenylsulfanyl)-7H-pyrrolo[2,3-d] pyrimidine]: on E. coli TS, the pIC50 is less than 4.89 and the “% inhibition TS E. coli” value is 0%.

Regarding `CC(C)c1c(Sc2c(Cl)cccc2Cl)[nH]c2nc(N)nc(N)c12` [Compound 19, 2,4-Diamino-5-isopropyl-6-(2′,6′-dichlorophenylsulfanyl)-7H-pyrrolo[2,3-d]pyrimidine], on E. coli TS, the pIC50 is less than 5.66 and the “% inhibition TS E. coli” value came out at 0%.
